Results published in patent publication US20240239840A1, “method for the treatment of pain and a medicinal product for administration during pain” (PVP LABS PTE.LTD., priority 2023, published 2024).
Square brackets hold non-standard residues; d marks the D form. Peptide text beside a SMILES is read from it.

Key:
[1] = clinical trial of pain treatment in the early postoperative period, safety; type: in vivo, human; settings: groups treated with Promedol
Description: (§1) Additional clinical trials focused of the treatment of pain in the early postoperative period after a variety of surgical interventions, including urological, gynaecological and other surgeries.
(§2) If NRS pain intensity score on day two was <4, only paracetamol was administered by IV injection as necessary, and the maximum daily dose was […]. […] Pain was usually brought under control within 1-2 days in the early postoperative period.

[2] = test system: patients with early postoperative pain; experiment: clinical trial of pain treatment in the early postoperative period, efficacy; type: in vivo, human
Description: as §1, §2

δ-receptors = δ-receptors (Homo sapiens, UniProt P41143); experiment: opioid receptor specificity of the tetrapeptide; type: binding
Sequence of δ-receptors (P41143 whole entry): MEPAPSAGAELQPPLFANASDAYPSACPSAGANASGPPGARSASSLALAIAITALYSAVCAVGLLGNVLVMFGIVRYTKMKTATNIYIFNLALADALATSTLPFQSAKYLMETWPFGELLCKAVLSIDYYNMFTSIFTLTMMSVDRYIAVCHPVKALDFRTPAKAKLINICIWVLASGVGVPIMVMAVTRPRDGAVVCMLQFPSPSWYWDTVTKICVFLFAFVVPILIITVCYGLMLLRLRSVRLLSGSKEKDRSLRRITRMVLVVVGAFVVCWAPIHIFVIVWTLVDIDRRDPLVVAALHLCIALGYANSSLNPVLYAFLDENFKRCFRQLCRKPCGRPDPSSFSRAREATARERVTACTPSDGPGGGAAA
Source text: (§3) Two subtypes of μ receptors are recognized: activation of μ1 receptors causes pronounced analgesia, while activation of μ2-receptors leads to respiratory depression, cardiovascular system disturbances such as bradycardia, and suppression of intestinal motility. Therefore, high specificity of the tetrapeptide in question to μ1-opioid receptors ensures the absence of side effects that are typical of most opioid narcotic medications. This tetrapeptide interacts with peripheral and central receptors, although it mostly acts at the spinal level. After the tetrapeptide binds to μ1-receptors, G-protein complex is released, which inhibits the release of neurotransmitters by the cell by reducing the amount of cAMP produced, closing calcium channels and opening potassium channels, which, among other consequences, inhibits the transmission of pain signals in nociceptors. The tetrapeptide activates the antinociceptive system, thereby disrupting interneuronal transmission of pain signals at different levels of the CNS, and changes the intensity of pain perception by acting on the higher brain centres.

other opioid receptors = experiment: opioid receptor specificity of the tetrapeptide; type: binding
Source text: as §3

μ1-opioid receptor = μ1-opioid receptor (Homo sapiens, UniProt P35372); experiment: opioid receptor specificity of the tetrapeptide; type: binding
Sequence of μ1-opioid receptor (P35372 whole entry): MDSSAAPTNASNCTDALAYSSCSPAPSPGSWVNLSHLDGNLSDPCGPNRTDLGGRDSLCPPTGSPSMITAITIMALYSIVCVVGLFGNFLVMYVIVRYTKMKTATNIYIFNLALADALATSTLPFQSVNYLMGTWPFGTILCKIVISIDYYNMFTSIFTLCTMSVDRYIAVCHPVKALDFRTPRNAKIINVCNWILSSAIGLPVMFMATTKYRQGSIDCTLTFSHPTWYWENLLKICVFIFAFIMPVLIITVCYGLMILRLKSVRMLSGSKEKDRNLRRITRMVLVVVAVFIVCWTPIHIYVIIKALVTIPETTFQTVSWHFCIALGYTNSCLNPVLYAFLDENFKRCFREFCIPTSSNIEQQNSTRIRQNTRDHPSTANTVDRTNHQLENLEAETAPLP
Source text: as §3

[3] = phase II clinical trial, safety in cancer patients experiencing pain
Description: (§4) Pain intensity was evaluated on a numeric rating scale (NRS) from 0 to 10. […] The patients' physical activity score on the Eastern Cooperative Oncology Group (ECOG) performance status scale was 0 to 3, i.e. they were active and were up and about for over 50% of waking hours (grade 2 on the ECOG scale) or were capable of only limited self-care and confined to bed or chair more than 50% of waking hours (grade 3 on the ECOG scale).
(§5) The study was carried out in two stages. The total duration of the trial for each patient was 20 days or less. […] The number of doses depended on pain intensity as evaluated on the NRS scale for each individual patient.
Comments: 1. […] 2. SAE=serious adverse event.

[4] = test system: patients with cancer pain; experiment: phase III clinical trial, efficacy in patients with cancer pain; type: in vivo, human
Description: Primary efficacy evaluation was performed during the following visits: Visit 1 (day 1 of tetrapeptide treatment), Visit 2 (day 28±2 of tetrapeptide treatment), Visit 3 (day 56±2 of tetrapeptide treatment) and Visit 4 (day 86±2 of tetrapeptide treatment).
Analgesic treatment response maintenance rate by day 28.
Treatment response was considered maintained if all of the following conditions were met: • 1. […] Daily average pain intensity at the end of the 28-day treatment period remains at <50% of the intensity at the start of titration.

[5] = test system: cancer patients with severe cancer pain; experiment: phase II clinical trial, efficacy in cancer patients experiencing pain; type: in vivo, human
Description: as §4, §5
The primary efficacy endpoint was the rate of achieving a sufficient analgesic effect throughout the day.

[6] = phase III clinical trial, safety in patients with cancer pain
[7] = Promedol 20 mg three times daily
[8] = Promedol 20 mg three times daily on day 1
[9] = investigator-evaluated, Visit 2

**Q.** For CCC(=O)OC1(c2ccccc2)CC(C)N(C)CC1C (centres unmarked) [Promedol], which “patients with AEs” value [1] is on record?
**A.** Its value is 35%.

**Q.** What about the “daily average NRS pain intensity score” value [2, 7] of the same compound?
**A.** The value was 2.16±0.66.

**Q.** What about the “mean change in pain intensity” value [2, 7] of the same compound?
**A.** The value was 55.44±33.17%.

**Q.** What about the “proportion of patients with greater than 50% pain relief at 1 hour after the initial dose” value [2, 7] of the same compound?
**A.** Its value is 50%.

**Q.** What about the “patients requiring repeat dosing on day 2 who were dosed three times” value [2, 8] of the same compound?
**A.** Its value is 16.67%.

**Q.** What about the “patients requiring repeat dosing on day 2 who were dosed twice” value [2, 8] of the same compound?
**A.** Its value is 83.33%.

**Q.** And the “daily average NRS pain intensity score” value ([2]; day 2, Promedol 20 mg three times daily)?
**A.** Its value is 1.41±1.92.

**Q.** Which “interaction with δ-receptors weaker than with μ-opioid receptors” value (δ-receptors) does the source give for N=C(N)NCCC[C@@H](NC(=O)[C@@H](N)Cc1ccc(O)cc1)C(=O)N[C@@H](Cc1ccccc1)C(=O)NCC(N)=O [H-Tyr-D-Arg-Phe-Gly-NH2, Tyrosyl-D-arginyl-phenylalanyl-glycinamide] (H-Y[dR]FG-NH2) here?
**A.** Its value is 3 orders of magnitude.

**Q.** What about the “interactions with the other receptors” value (other opioid receptors) of the same compound?
**A.** Its value is “no interactions with the other receptors have been detected”.

**Q.** What about the opioid receptor activity (μ1-opioid receptor) of the same compound?
**A.** Its opioid receptor activity is “highly specific μ1-opioid receptor agonist”.

**Q.** With CN1CC[C@]23c4c5ccc(O)c4O[C@H]2[C@@H](O)C=C[C@H]3[C@H]1C5 [morphine] as the compound, how does the “dyspnoea / difficulty breathing” value ([3]; human, in vivo) read?
**A.** Its value is “difficulty breathing was observed”.

**Q.** What about the “Acute heart failure (SAE), % of the total number of AEs for the group” value ([3]; stage 2) of the same compound?
**A.** The value was “(3.7) %”.

**Q.** What about the “Anaemia, % of the total number of AEs for the group” value ([3]; stage 2) of the same compound?
**A.** The value was “(3.7) %”.

**Q.** And the “Appetite lost, % of the total number of AEs for the group” value ([3]; stage 2)?
**A.** Its value is “(7.4) %”.

**Q.** What about the “Asthenia, % of the total number of AEs for the group” value ([3]; stage 2) of the same compound?
**A.** The value was “(14.8) %”.

**Q.** And the “Constipation, % of the total number of AEs for the group” value ([3]; stage 2)?
**A.** Its value is “(14.8) %”.

**Q.** What about the “Cough, % of the total number of AEs for the group” value ([3]; stage 2) of the same compound?
**A.** Its value is “(3.7) %”.

**Q.** And the “Dizziness postural, % of the total number of AEs for the group” value ([3]; stage 2)?
**A.** Its value is “(0) %”.

**Q.** And the “Dizziness, % of the total number of AEs for the group” value ([3]; stage 2)?
**A.** Its value is “(3.7) %”.

**Q.** What about the “Dry mouth, % of the total number of AEs for the group” value ([3]; stage 2) of the same compound?
**A.** The value was “(3.7) %”.

**Q.** And the “Flatulence, % of the total number of AEs for the group” value ([3]; stage 2)?
**A.** The value was “(3.7) %”.

**Q.** What about the “Insomnia, % of the total number of AEs for the group” value ([3]; stage 2) of the same compound?
**A.** Its value is “(3.7) %”.

**Q.** What about the “Multiple organ dysfunction syndrome (SAE), % of the total number of AEs for the group” value ([3]; stage 2) of the same compound?
**A.** Its value is “(3.7) %”.

**Q.** What about the “Nausea, % of the total number of AEs for the group” value ([3]; stage 2) of the same compound?
**A.** The value was “(3.7) %”.

**Q.** What about the “Peripheral oedema, % of the total number of AEs for the group” value ([3]; stage 2) of the same compound?
**A.** The value was “(3.7) %”.

**Q.** What about the “Pulmonary oedema (SAE), % of the total number of AEs for the group” value ([3]; stage 2) of the same compound?
**A.** The value was “(3.7) %”.

**Q.** What about the “Sedation, % of the total number of AEs for the group” value ([3]; stage 2) of the same compound?
**A.** The value was “(7.4) %”.

**Q.** What about the “Shortness of breath, % of the total number of AEs for the group” value ([3]; stage 2) of the same compound?
**A.** The value was “(3.7) %”.

**Q.** And the “Total, % of the total number of AEs for the group” value ([3]; stage 2)?
**A.** Its value is “(100) %”.

**Q.** What about the “Vomiting, % of the total number of AEs for the group” value ([3]; stage 2) of the same compound?
**A.** Its value is “(3.7) %”.

**Q.** And the “incidence of AEs” value ([3]; stage 2, 16 patients per group)?
**A.** The value was 50.0%.

**Q.** What about the “number of patients in whom AEs were reported” value ([3]; stage 2, 16 patients per group) of the same compound?
**A.** The value was 8.

**Q.** What about the “number of SAEs reported” value ([3]; stage 2, in 1 patient) of the same compound?
**A.** Its value is 1.

**Q.** What about the “average SF-36 mental health score” value ([4]; Visit 0) of the same compound?
**A.** Its value is 31.42±12.16.

**Q.** And the “average SF-36 physical health score” value ([4]; Visit 0)?
**A.** Its value is 32.22±10.76.

**Q.** And the “average SF-36 mental health score” value ([4]; Visit 2)?
**A.** The value was 31.42±12.16.

**Q.** What about the “average SF-36 physical health score” value ([4]; Visit 2) of the same compound?
**A.** Its value is 49.52±11.73.

**Q.** And the non-responders to therapy ([4]; by Visit 2)?
**A.** The non-responders to therapy was “no non-responders”.

**Q.** What about the “proportion of patients who required a dose increase” value ([4]; by Visit 2) of the same compound?
**A.** The value was 6.52%.

**Q.** And the “proportion of patients with at least one episode of breakthrough pain” value ([4]; by Visit 2)?
**A.** The value was 2.17%.

**Q.** And the “daily average NRS pain intensity score (Mean±SD)” value ([4]; by group, at Visit 2)?
**A.** The value was 0.28±0.30.

**Q.** What about the “proportion of patients with a “good response” to therapy” value [4, 9] of the same compound?
**A.** The value was 67.39%.

**Q.** What about the “proportion of patients with a “satisfactory response” to therapy” value [4, 9] of the same compound?
**A.** Its value is 0.00%.

**Q.** And the “proportion of patients with an “excellent response” to therapy” value [4, 9]?
**A.** The value was 32.61%.

**Q.** And the “average stable daily dose ensuring adequate pain relief” value ([5]; baseline, all Taphalgin dose subgroups)?
**A.** Its value is 20.31 mg.

**Q.** What about the average starting dose ([5]; before study, patients of the 2 mg Taphalgin subgroup) of the same compound?
**A.** Its average starting dose is 18.33 mg.

**Q.** And the “within-group trend of daily average NRS pain intensity scores” value ([5]; stage 2)?
**A.** The value was “flat”.

**Q.** What about the “daily average NRS pain intensity score” value ([5]; stage 2, day of dosing 11) of the same compound?
**A.** Its value is 0.12 ± 0.22.

**Q.** What about the “daily average NRS pain intensity score” value ([5]; stage 2, day of dosing 12) of the same compound?
**A.** Its value is 0.30 ± 0.38.

**Q.** What about the “daily average NRS pain intensity score” value ([5]; stage 2, day of dosing 13) of the same compound?
**A.** Its value is 0.24 ± 0.35.

**Q.** What about the “daily average NRS pain intensity score” value ([5]; stage 2, day of dosing 14) of the same compound?
**A.** The value was 0.24 ± 0.35.

**Q.** And the “daily average NRS pain intensity score” value ([5]; stage 2, day of dosing 15)?
**A.** The value was 0.28 ± 0.30.

**Q.** And the “daily average NRS pain intensity score” value ([5]; stage 2, day of dosing 16)?
**A.** Its value is 0.17 ± 0.21.

**Q.** What about the “daily average NRS pain intensity score” value ([5]; stage 2, day of dosing 17) of the same compound?
**A.** The value was 0.17 ± 0.23.

**Q.** And the “prevalence of patients with AEs” value ([6]; Period 1)?
**A.** Its value is 71.19%.

**Q.** And the “total number of AEs reported” value ([6]; Period 1)?
**A.** The value was 119.

**Q.** And the AEs mild ([6]; Period 1, % of cases)?
**A.** The AEs mild was 65.55%.

**Q.** And the AEs moderate ([6]; Period 1, % of cases)?
**A.** Its AEs moderate is 33.61%.

**Q.** And the AEs severe ([6]; Period 1, % of cases)?
**A.** The AEs severe was 0.84%.

**Q.** And the “causality between AEs and therapy: certain” value ([6]; Period 1, % of cases)?
**A.** Its value is 13.44%.

**Q.** What about the “causality between AEs and therapy: conditional” value ([6]; Period 1, % of cases) of the same compound?
**A.** The value was 0.84%.

**Q.** And the “causality between AEs and therapy: possible” value ([6]; Period 1, % of cases)?
**A.** The value was 38.66%.

**Q.** What about the “causality between AEs and therapy: probable” value ([6]; Period 1, % of cases) of the same compound?
**A.** Its value is 29.41%.

**Q.** What about the “causality between AEs and therapy: unclassifiable” value ([6]; Period 1, % of cases) of the same compound?
**A.** Its value is 0.84%.

**Q.** What about the “causality between AEs and therapy: unlikely” value ([6]; Period 1, % of cases) of the same compound?
**A.** Its value is 11.76%.

**Q.** And the “causality between AEs and therapy: unrelated” value ([6]; Period 1, % of cases)?
**A.** Its value is 5.04%.

**Q.** And the “number of AEs with causality “certain”, “probable” or “possible”” value ([6]; both, human, in vivo, oral)?
**A.** Its value is 97.

**Q.** What about the “prevalence of patients with reported AEs” value ([6]; comprehensive within-group analysis (44/120 vs 43/59)) of the same compound?
**A.** Its value is 72.88%.
